Test results reported in patent publication US10881649B2, “Therapeutic agent or preventive agent for alopecia areata” (Toray Industries, Inc., priority 2017, dated 2021).

Assays:
[1] = test system: mouse alopecia areata model; test: Symptom-suppressing effect on a mouse alopecia areata model (preventive protocol); format: in vivo, C3H/HeJ mice; conditions: for hair loss score (mean±standard error): Day 63, 10 mg/kg orally once daily Day 0 to Day 62, n=10, vehicle group 3.2±1.13; for range of hair loss (FIG. 1): abdomen on Day 63, compared with the disease group (vehicle treatment group), 10 mg/kg orally once daily
Description: The effect of cyclic amine derivative (I) or a pharmacologically acceptable salt thereof in a mouse alopecia areata model was evaluated using increase in the hair loss score as an index of worsening of symptoms. The mouse alopecia areata model was prepared by partially modifying the method by Wang et al. (Journal of Investigative Dermatology, 2015, Vol. 135, p. 2530-2532).
(§1) Female C3H/HeJ mice (CLEA Japan, Inc.) with spontaneous hair loss in 70% or more of the body surface were used as donor mice. The donor mice were euthanized by cervical dislocation, and then the inguinal, axilla, and auricular lymph nodes were aseptically removed. The lymph nodes were filtered through a 70 μm cell strainer to isolate lymphocytes. The lymphocytes were washed with Advanced RPMI media (containing 10% fetal bovine serum, 2 mM Gluta Max, and 100 U/mL penicillin streptomycin), and then suspended in Advanced RPMI media to which Human rIL-2 (Roche; final concentration of 30 U/mL), Mouse rIL-7 (R&D systems, Inc.; final concentration of 25 ng/mL), and Mouse rIL-15 (R&D systems, Inc.; final concentration of 50 ng/mL) were added so that the concentration was 2×10^6 cells/mL. The lymphocytes were seeded in 1 mL portions on 24-well plates, and 500 μL of Dynabead mouse T-activator CD3/CD28 (Life Technologies) was added, followed by culture in a CO2 incubator. Culture was performed for 6 days so that the cell density was 1.5 to 2.0×10^6 cells/mL during culture.
The day of transplantation of lymphocytes derived from donor mice was regarded as Day 0. Two days before the day of transplantation (Day −2), hair on the back, which would be a transplantation site, of 10-week old female C3H/HeJ mice without hair loss (CLEA Japan, Inc.) was removed with an electric hair clipper under isoflurane anesthesia (1.5 cm×1.5 cm). Furthermore, grouping was performed using the body weight on Day −1 as an index.
On Day 0, lymphocytes in which beads were removed with EasySep magnet (Stemcell Technologies Inc.) were collected into new tubes. The collected lymphocytes were suspended in PBS(−) so that the concentration was 10×10^7 cells/mL, filled in a 1 mL syringe with a 26G injection needle, and stored on ice until transplantation. Under isoflurane anesthesia, the filled lymphocyte suspension was intradermally injected into the hair removal site in 100 μL/body portions. […]
On Day 63, photographs of the back and the abdomen of the mice were taken under isoflurane anesthesia. The status of hair loss was evaluated by partially modifying the method by Alli et al. (Journal of Immunology, 2012, Vol. 188, p. 477-486). In other words, the ratio of the area of hair loss site to the body surface area was scored in accordance with the criteria mentioned in Table 4, and defined as the hair loss score. […]

[2] = test system: mouse alopecia areata model; test: Symptom-suppressing effect on a mouse alopecia areata model (therapeutic protocol); format: in vivo, C3H/HeJ mice; conditions: Day 91; 10 mg/kg orally once daily Day 49 to Day 90; n=6; vehicle group 9.2±0.83; Day 49 mean 3.6±0.66
Description: The effect of cyclic amine derivative (I) or a pharmacologically acceptable salt thereof in a mouse alopecia areata model was evaluated using increase in the hair loss score as an index of worsening of symptoms. The mouse alopecia areata model was prepared using the same method as in Example 73.
as §1, with “In other words, female” for “Female”, “The lymphocytes were seeded in 1 mL portions on 24-well plates, and 500 μL of Dynabead mouse T-activator CD3/CD28 (Life Technologies) was added, followed by culture in a CO2 incubator. Culture was performed for 6 days so that the cell density was 1.5 to 2.0×10^6 cells/mL during culture.” left out
On Day 49, grouping was performed using the mouse hair loss score calculated in the same manner as in Example 73 as an index (the hair loss score on Day 49 (mean±standard error): 3.6±0.66). […]
On Day 91, the mouse hair loss score was calculated in the same manner as in Example 73. […]

Row | SMILES | hair loss score (mean±standard error) [1] | range of hair loss (FIG. 1) [1] | hair loss score (mean±standard error) [2]
1 | CN(CC(=O)N1CCCC[C@@H]1C(=O)Nc1ccc(-c2ccccc2OC(F)(F)F)c(Cl)c1)S(C)(=O)=O [Compound of Example 29, (R)—N-(2-chloro-2′-(trifluoromethoxy)-[1,1′-biphenyl]-4-yl)-1-(2-(N-methylmethylsulfonamide)acetyl)piperidine-2-carboxamide] | 1.3±0.67 | very smaller | 4.3±1.41
2 | O=C(Nc1ccc(-c2ccccc2OC(F)(F)F)c(Cl)c1)[C@H]1CCCCN1C(=O)Cn1cnnn1 [Compound of Example 57, (R)-1-(2-(1H-tetrazol-1-yl)acetyl)-N-(2-chloro-2′-(trifluoromethoxy)-[1,1′-biphenyl]-4-yl)piperidine-2-carboxamide] | 1.8±0.88 | very smaller | 5.5±1.43
